# In patent US20130085161A1, “PIPERIDINYL SUBSTITUTED 1,3-DIHYDRO-BENZOIMIDAZOL-2-YLIDENEAMINE DERIVATIVES” (NOVARTIS AG, priority 2010, published 2013):
# pIC50: −log10 of the molar value.
# Biological target: T1, BaF3-Tel-IGF1-R (Homo sapiens, UniProt P08069)
# T1 construct: the kinase domain of IGF-1R (aa 976-1367) linked by a Ser-Arg-linker; expressed in transfected cells; host or cells: BaF3 murine proB-cell lymphoma cells, stably transduced
# Assay: BaF3 cell viability assay (resazurin/AlamarBlue), 96-well format
# Type: cell-based
# Conditions: 96-well plate format; 48 h incubation; resazurin dye reduction; cell proliferation/viability
# Text: BaF3-Tel-IGF1-R and BaF3-InsR are BaF3 murine proB-cell lymphoma cell derivatives [the BaF3 cell line (also termed Ba/F3) is available from the German Collection of Microorganisms and Cell Cultures (DSMZ), Braunschweig, Germany] that have been rendered IL-3-independent by stable transduction with kinase-activating fusions between human TEL (aa 1-452) and the kinase domain of IGF-1R (aa 976-1367) linked by a Ser-Arg-linker (Boulay et al, Cancer Res 68, 3743-3751, 2008), and a fusion between human TEL (aa 1-337) and the kinase domain (aa 1015-1382) of the Insulin receptor (Melnick J S et al, Proc Natl Acad Sci USA 103, 3153-3158, 2006), respectively. Cells are cultured in RPMI-1640 (Animed #1-14F01-1) supplemented with 2% L-glutamine (Animed #5-10K50-H) and 10% fetal calf serum (FCS, Animed #2-01F16-I). Wild-type, untransfected BaF3 cells are maintained in above medium plus 10 U/ml IL-3 (mouse Interleukin-3, Roche #1380745 or Invitrogen # PMC0035) and are used to identify non-selective, generally growth-inhibitory compounds. Cells (1.5×10^4 cells per well) are seeded in 190 μl fresh medium into 96-well plates. […] In addition, a plate blank value is routinely determined in a well containing only 100 μl of medium and no cells. […] Following incubation of the cells for 48 h at 37° C. and 5% CO2, the effect of inhibitors on cell viability is assessed by the resazurin sodium salt dye reduction assay (commercially known as AlamarBlue assay) basically as previously described (O'Brien J. et al., Eur. J. Biochem. 267: 5421-5426, 2000). […] Thereafter, fluorescence is measured using a Saphirell 96-well plate reader (TECAN, Männedorf, Switzerland) with the following settings: Excitation 544 nm and Emission 590 nm. […] The effect of a particular test compound concentration on cell proliferation and viability is expressed as percentage of the blank-corrected reading obtained for cells treated with vehicle only, which is set as 100%. IC50 values can be determined using XLfit (V4.2), applying standard four parameter logistic model #205 (IDBS, Guilford, UK) or other common curve-fitting software.
# T1 sequence (P08069 976-1367): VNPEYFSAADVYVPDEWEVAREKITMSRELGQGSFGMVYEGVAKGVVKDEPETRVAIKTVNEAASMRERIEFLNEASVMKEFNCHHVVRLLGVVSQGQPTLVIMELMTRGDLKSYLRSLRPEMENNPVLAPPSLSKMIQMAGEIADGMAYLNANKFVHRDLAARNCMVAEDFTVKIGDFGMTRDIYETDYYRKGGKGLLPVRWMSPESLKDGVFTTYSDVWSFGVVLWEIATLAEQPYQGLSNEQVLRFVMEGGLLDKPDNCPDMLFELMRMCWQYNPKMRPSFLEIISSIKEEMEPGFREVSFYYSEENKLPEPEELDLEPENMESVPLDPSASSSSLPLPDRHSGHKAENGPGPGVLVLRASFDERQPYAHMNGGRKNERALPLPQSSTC
row,Structure (SMILES),pIC50
1,"CC(=O)Nc1ccccc1N1CCC(n2c(=N)n(Cc3ccccc3Cl)c3ccccc32)CC1 [Example 56.6, N-(2-{4-[3-(2-Chloro-benzyl)-2-imino-2,3-dihydro-benzoimidazol-1-yl]-piperidin-1-yl}-phenyl)-acetamide]",7.03
2,"Cc1cccc(N2CCC(n3c(=N)n(Cc4ccccc4Cl)c4ccccc43)CC2)c1 [Example 54, 1-(2-Chloro-benzyl)-3-(1-m-tolyl-piperidin-4-yl)-1,3-dihydro-benzoimidazol-2-ylideneamine]",6.39
3,"Cc1cccc(N2CCC(n3c(=N)n(Cc4cc(F)ccc4Cl)c4ccccc43)CC2)c1 [Example 55, 1-(2-Chloro-5-fluoro-benzyl)-3-(1-m-tolyl-piperidin-4-yl)-1,3-dihydro-benzoimidazol-2-ylideneamine]",6.54

# Biological target: T1, BaF3-Tel-IGF1-R
# Assay: BaF3 cell viability assay (resazurin), 384-well format
# Type: cell-based
# Conditions: 384-well plate format; 48 h incubation; resazurin dye reduction; cell proliferation/viability
# Text: BaF3-Tel-IGF1-R and BaF3-InsR are BaF3 murine proB-cell lymphoma cell derivatives [the BaF3 cell line (also termed Ba/F3) is available from the German Collection of Microorganisms and Cell Cultures (DSMZ), Braunschweig, Germany] that have been rendered IL-3-independent by stable transduction with kinase-activating fusions between human TEL (aa 1-452) and the kinase domain of IGF-1R (aa 976-1367) linked by a Ser-Arg-linker (Boulay et al, Cancer Res 68, 3743-3751, 2008), and a fusion between human TEL (aa 1-337) and the kinase domain (aa 1015-1382) of the Insulin receptor (Melnick J S et al, Proc Natl Acad Sci USA 103, 3153-3158, 2006), respectively. Cells are cultured in RPMI-1640 (Animed #1-14F01-1) supplemented with 2% L-glutamine (Animed #5-10K50-H) and 10% fetal calf serum (FCS, Animed #2-01F16-I). Wild-type, untransfected BaF3 cells are maintained in above medium plus 10 U/ml IL-3 (mouse Interleukin-3, Roche #1380745 or Invitrogen # PMC0035) and are used to identify non-selective, generally growth-inhibitory compounds. Cells (1.5×10^4 cells per well) are seeded in 190 μl fresh medium into 96-well plates. 10 μl 20× compound solutions are added. As internal control, the kinase inhibitor PKC412 is routinely used. Control cells treated with DMSO (0.1% final concentration) serve as growth reference (set as 100% growth). In addition, a plate blank value is routinely determined in a well containing only […] of medium and no cells. IC50 determinations are performed based on eight 3-fold serial dilutions of the test compound, starting at 10 μM. Following incubation of the cells for 48 h at 37° C. and 5% CO2, the effect of inhibitors on cell viability is assessed by the resazurin sodium salt dye reduction assay (commercially known as AlamarBlue assay) basically as previously described (O'Brien J. et al., Eur. J. Biochem. 267: 5421-5426, 2000). Briefly, 20 μl dye solution is added per well and the plates incubated for 6 h at 37° C. and 5% CO2. Thereafter, fluorescence is measured using a Saphirell 96-well plate reader (TECAN, Männedorf, Switzerland) with the following settings: Excitation 544 nm and Emission 590 nm. For data analysis, the plate blank value is subtracted from all data points. The effect of a particular test compound concentration on cell proliferation and viability is expressed as percentage of the blank-corrected reading obtained for cells treated with vehicle only, which is set as 100%. IC50 values can be determined using XLfit (V4.2), applying standard four parameter logistic model #205 (IDBS, Guilford, UK) or other common curve-fitting software.
# To achieve a higher throughput, the cell viability assay can also be performed in a 384-well format. Briefly, 4′500 freshly diluted cells are seeded in 54 μl/well into 384-well plates using a liquid dispenser. 6 μl 10× compound solution is added to the cell plate. As internal control, the kinase inhibitor PKC412 is routinely used. Control cells treated with DMSO (0.1% final concentration) serve as growth reference (set as 100% growth). In addition, a plate blank value is routinely determined in a well containing only 60 μl of medium and no cells. Dose-response effects are determined by 3-fold serial compound dilutions, starting at 10 μM. Following incubation of the cells for 48 h at 37° C. and 5% CO2, the effect of compounds on cell proliferation/viability is assessed by addition of 6 μl resazurin sodium salt dye solution per well. Following incubation for an additional 6 hrs at 37° C. and 5% CO2, fluorescence is measured using an Infiniti M1000 microplate reader (TECAN, Männedorf, Switzerland) with excitation and emission wavelengths set at 544 and 590 nm, respectively. For data analysis, the plate blank value is subtracted from all data points. IC50 values can be determined by four parameter logistic fitting as described above.
row,Structure (SMILES),pIC50
1,"CC(=O)Nc1ccccc1N1CCC(n2c(=N)n(Cc3cccc4[nH]ccc34)c3ccc(F)cc32)CC1 [Example 56.19, N-(2-{4-[6-Fluoro-2-imino-3-(1H-indol-4-ylmethyl)-2,3-dihydro-benzoimidazol-1-yl]-piperidin-1-yl}-phenyl)-acetamide]",6.42
2,"CC(=O)Nc1ccc(C(F)(F)F)cc1N1CCC(n2c(=N)n(Cc3cccc4[nH]nnc34)c3ccc(F)cc32)CC1 [Example 56.14, N-(2-{4-[3-(1H-Benzotriazol-4-ylmethyl)-6-fluoro-2-imino-2,3-dihydro-benzoimidazol-1-yl]-piperidin-1-yl}-4-trifluoromethyl-phenyl)-acetamide]",7.64
3,"CC(=O)Nc1ccccc1N1CCC(n2c(=N)n(Cc3ccccc3Cl)c3ccccc32)CC1 [Example 56.6, N-(2-{4-[3-(2-Chloro-benzyl)-2-imino-2,3-dihydro-benzoimidazol-1-yl]-piperidin-1-yl}-phenyl)-acetamide]",6.83
4,"CC(=O)Nc1ccc(Cl)cc1N1CCC(n2c(=N)n(Cc3cccc4[nH]nnc34)c3ccc(F)cc32)CC1 [Example 63, N-(2-{4-[3-(1H-Benzotriazol-4-ylmethyl)-6-fluoro-2-imino-2,3-dihydro-benzoimidazol-1-yl]-piperidin-1-yl}-4-chloro-phenyl)-acetamide]",7.66
5,"CC(=O)Nc1ccc(C(F)(F)F)cc1N1CCC(n2c(=N)n(Cc3cccc4[nH]ccc34)c3ccc(F)cc32)CC1 [Example 56.16, N-(2-{4-[6-Fluoro-2-imino-3-(1H-indol-4-ylmethyl)-2,3-dihydro-benzoimidazol-1-yl]-piperidin-1-yl}-4-trifluoromethyl-phenyl)-acetamide]",7.41
6,"CC(=O)Nc1ccc(C)nc1N1CC[C@H](n2c(=N)n(Cc3ccccc3Cl)c3ccc(F)cc32)[C@@H](O)C1 (racemic) [Example 67.2, Rac-trans-N-{4-[3-(2-Chloro-benzyl)-6-fluoro-2-imino-2,3-dihydro-benzoimidazol-1-yl]-3-hydroxy-6′-methyl-3,4,5,6-tetrahydro-2H-[1,2′]bipyridinyl-3′-yl}-acetamide]",7.21
7,"CC(=O)Nc1ccc(C(F)(F)F)cc1N1CCC(n2c(=N)n(Cc3ccccc3Cl)c3ccccc32)CC1 [Example 56.7, N-(2-{4-[3-(2-Chloro-benzyl)-2-imino-2,3-dihydro-benzoimidazol-1-yl]-piperidin-1-yl}-4-trifluoromethyl-phenyl)-acetamide]",7.16
8,"CC(=O)Nc1ccc(C)nc1N1CC[C@H](n2c(=N)n(Cc3cccc4[nH]ccc34)c3ccccc32)[C@@H](O)C1 (racemic) [Example 67.4, Rac-trans-N-{3-Hydroxy-4-[2-imino-3-(1H-indol-4-ylmethyl)-2,3-dihydro-benzoimidazol-1-yl]-6′-methyl-3,4,5,6-tetrahydro-2H-[1,2′]bipyridinyl-3′-yl}-acetamide]",6.00
9,"CC(=O)Nc1ccc(Cl)cc1N1CC[C@H](n2c(=N)n(Cc3ccccc3Cl)c3ccc(F)cc32)[C@@H](O)C1 (racemic) [Example 67.1, Rac-trans-N-(4-Chloro-2-{4-[3-(2-chloro-benzyl)-6-fluoro-2-imino-2,3-dihydro-benzo-imidazol-1-yl]-3-hydroxy-piperidin-1-yl}-phenyl)-acetamide]",8.00
10,"CC(=O)Nc1ccc(Cl)cc1N1CCC(n2c(=N)n(Cc3ccccc3Cl)c3ccc(F)cc32)CC1 [Example 62, N-(4-Chloro-2-{4-[3-(2-chloro-benzyl)-6-fluoro-2-imino-2,3-dihydro-benzoimidazol-1-yl]-piperidin-1-yl}-phenyl)-acetamide]",7.44
11,"CC(=O)/N=c1\n(Cc2ccccc2Cl)c2ccccc2n1C1CCN(c2cc(Cl)ccc2NC(C)=O)CC1 [Example 59, N-(2-{4-[2-Acetylimino-3-(2-chloro-benzyl)-2,3-dihydro-benzoimidazol-1-yl]-piperidin-1-yl}-4-chloro-phenyl)-acetamide]",6.39
12,"CC(=O)Nc1ccc(C#N)cc1N1CCC(n2c(=N)n(Cc3cccc4[nH]ccc34)c3ccccc32)CC1 [Example 56.4, N-(4-Cyano-2-{4-[2-imino-3-(1H-indol-4-ylmethyl)-2,3-dihydro-benzoimidazol-1-yl]-piperidin-1-yl}-phenyl)-acetamide]",7.00
13,"COc1ccc(NC(C)=O)c(N2CCC(n3c(=N)n(Cc4cccc5[nH]ccc45)c4ccc(F)cc43)CC2)c1 [Example 56.13, N-(2-{4-[6-Fluoro-2-imino-3-(1H-indol-4-ylmethyl)-2,3-dihydro-benzoimidazol-1-yl]-piperidin-1-yl}-4-methoxy-phenyl)-acetamide]",8.05
14,"CC(=O)Nc1ccc(Cl)cc1N1CC[C@H](n2c(=N)n(Cc3cccc4[nH]ccc34)c3ccc(F)cc32)[C@@H](O)C1 (racemic) [Example 67, Rac-trans-N-(4-Chloro-2-{4-[6-fluoro-2-imino-3-(1H-indol-4-ylmethyl)-2,3-dihydro-benzoimidazol-1-yl]-3-hydroxy-piperidin-1-yl}-phenyl)-acetamide]",7.64
15,"CC(=O)Nc1ccc(Cl)cc1N1CCC(n2c(=N)n(Cc3ccccc3Cl)c3ccccc32)CC1 [Example 58, N-(4-Chloro-2-{4-[3-(2-chloro-benzyl)-2-imino-2,3-dihydro-benzoimidazol-1-yl]-piperidin-1-yl}-phenyl)-acetamide]",7.43
16,"CC(=O)Nc1ccc(C(F)(F)F)cc1N1CCC(n2c(=N)n(Cc3cccc4[nH]nnc34)c3ccccc32)CC1 [Example 56.8, N-(2-{4-[3-(1H-Benzotriazol-4-ylmethyl)-2-imino-2,3-dihydro-benzoimidazol-1-yl]-piperidin-1-yl}-4-trifluoromethyl-phenyl)-acetamide]",6.68
17,"CC(=O)Nc1ccc(C)cc1N1CCC(n2c(=N)n(Cc3ccccc3Cl)c3ccc(F)cc32)CC1 [Example 56.12, N-(2-{4-[3-(2-Chloro-benzyl)-6-fluoro-2-imino-2,3-dihydro-benzoimidazol-1-yl]-piperidin-1-yl}-4-methyl-phenyl)-acetamide]",7.32
18,"CC(=O)Nc1ccccc1N1CCC(n2c(=N)n(Cc3cccc4[nH]ccc34)c3ccccc32)CC1 [Example 56.2, N-(2-{4-[2-Imino-3-(1H-indol-4-ylmethyl)-2,3-dihydro-benzoimidazol-1-yl]-piperidin-1-yl}-phenyl)-acetamide]",7.38
